What was measured:
Format in all cases: functional, cell-based
HCT-116 = test: Growth inhibition of human HCT-116 cells incubated for 48 hrs by MTT reagent based ELISA reader analysis; settings: HCT-116, 48 h
HeLa = test: Growth inhibition of human HeLa cells incubated for 48 hrs by MTT reagent based ELISA reader analysis
A549 = test: Growth inhibition of human A549 cells incubated for 48 hrs by MTT reagent based ELISA reader analysis; settings: A549, 48 h
HepG2 = test: Growth inhibition of human HepG2 cells incubated for 48 hrs by MTT reagent based ELISA reader analysis; settings: HepG2, 48 h
MCF7 = test: Growth inhibition of human MCF7 cells incubated for 48 hrs by MTT reagent based ELISA reader analysis; settings: MCF7, 48 h

Structure (SMILES) | IC50 (HCT-116) | IC50 (HeLa) | IC50 (A549) | IC50 (HepG2) | IC50 (MCF7)
CCCOc1ccc(-c2c3c(nc4cc5c(cc24)OCO5)-c2cc4c(c(=O)n2C3)COC(=O)[C@]4(O)CC)cc1 | 562 nM | > 1000 nM | 225 nM | 993 nM | 53 nM
CCCCOc1ccc(-c2c3c(nc4cc5c(cc24)OCO5)-c2cc4c(c(=O)n2C3)COC(=O)[C@]4(O)CC)cc1 | 235 nM | > 1000 nM | > 1000 nM | > 1000 nM | > 1000 nM
CCCc1ccc(-c2c3c(cc4nc5c(cc24)Cn2c-5cc4c(c2=O)COC(=O)[C@]4(O)CC)OCO3)cc1 | 951 nM | > 1000 nM | 423 nM | > 1000 nM | > 1000 nM
CC[C@@]1(O)C(=O)OCc2c1cc1n(c2=O)Cc2cc3c(-c4cc(OC)cc(OC)c4)c4c(cc3nc2-1)OCO4 | 22.3 nM | 32.8 nM | 434 nM | 28.1 nM | 29.7 nM
CCOc1cccc(-c2c3c(nc4cc5c(cc24)OCO5)-c2cc4c(c(=O)n2C3)COC(=O)[C@]4(O)CC)c1 | 55.9 nM | 52.2 nM | 29.4 nM | 280 nM | 47.8 nM
CCOc1cccc(-c2c3c(cc4nc5c(cc24)Cn2c-5cc4c(c2=O)COC(=O)[C@]4(O)CC)OCO3)c1 | 256 nM | > 1000 nM | 111 nM | 199 nM | 156 nM
CC[C@@]1(O)C(=O)OCc2c1cc1n(c2=O)Cc2c-1nc1cc3c(cc1c2-c1ccc2c(c1)OCO2)OCO3 | 36.7 nM | 475 nM | 84.6 nM | 61.1 nM | 35.5 nM
CC[C@@]1(O)C(=O)OCc2c1cc1n(c2=O)Cc2c-1nc1cc3c(cc1c2-c1cccc(SC)c1)OCO3 | 46.1 nM | 125 nM | 132 nM | 78.6 nM | 34.6 nM
CC[C@@]1(O)C(=O)OCc2c1cc1n(c2=O)Cc2c-1nc1cc3c(cc1c2-c1ccc(C(C)C)cc1)OCO3 | 400 nM | 61.4 nM | 52 nM | 825 nM | 122 nM
CCOc1ccc(-c2c3c(nc4cc5c(cc24)OCO5)-c2cc4c(c(=O)n2C3)COC(=O)[C@]4(O)CC)cc1 | 226 nM | 63.2 nM | 61.2 nM | > 1000 nM | 64 nM
CC[C@@]1(O)C(=O)OCc2c1cc1n(c2=O)Cc2cc3c(-c4cc(OC)c(OC)c(OC)c4)c4c(cc3nc2-1)OCO4 | 136 nM | 140 nM | 1000 nM | 952 nM | 757 nM
CC[C@@]1(O)C(=O)OCc2c1cc1n(c2=O)Cc2cc3c(-c4cccc(SC)c4)c4c(cc3nc2-1)OCO4 | 134 nM | 32.3 nM | 133 nM | 190 nM | 98.5 nM
CC[C@@]1(O)C(=O)OCc2c1cc1n(c2=O)Cc2cc3c(-c4ccc(C)c(C)c4)c4c(cc3nc2-1)OCO4 | 774 nM | > 1000 nM | 259 nM | > 1000 nM | > 1000 nM
CCCOc1ccc(-c2c3c(cc4nc5c(cc24)Cn2c-5cc4c(c2=O)COC(=O)[C@]4(O)CC)OCO3)cc1 | 564 nM | 532 nM | 1000 nM | > 1000 nM | > 1000 nM
CC[C@@]1(O)C(=O)OCc2c1cc1n(c2=O)Cc2cc3c(-c4ccc(C(C)C)cc4)c4c(cc3nc2-1)OCO4 | > 1000 nM | > 1000 nM | 765 nM | > 1000 nM | 800 nM
CC[C@@]1(O)C(=O)OCc2c1cc1n(c2=O)Cc2c-1nc1cc3c(cc1c2-c1cccc(OC(C)C)c1)OCO3 | 793 nM | 143 nM | 400 nM | 1000 nM | 64.1 nM

Structure (SMILES) | IC50 (HCT-116) | IC50 (HeLa) | IC50 (A549) | IC50 (HepG2) | IC50 (MCF7)
CC[C@@]1(O)C(=O)OCc2c1cc1n(c2=O)Cc2c-1nc1cc3c(cc1c2-c1ccc(C(C)(C)C)cc1)OCO3 | 83.2 nM | > 1000 nM | 64 nM | 140 nM | 160 nM
CCc1ccc(-c2c3c(cc4nc5c(cc24)Cn2c-5cc4c(c2=O)COC(=O)[C@]4(O)CC)OCO3)cc1 | 697 nM | > 1000 nM | 265 nM | > 1000 nM | > 1000 nM
CCCc1ccc(-c2c3c(nc4cc5c(cc24)OCO5)-c2cc4c(c(=O)n2C3)COC(=O)[C@]4(O)CC)cc1 | 118 nM | 59.4 nM | 51 nM | 827 nM | 64 nM
CCCCc1ccc(-c2c3c(cc4nc5c(cc24)Cn2c-5cc4c(c2=O)COC(=O)[C@]4(O)CC)OCO3)cc1 | 759 nM | > 1000 nM | 541 nM | > 1000 nM | > 1000 nM
CC[C@@]1(O)C(=O)OCc2c1cc1n(c2=O)Cc2c-1nc1cc3c(cc1c2-c1ccc(OC(C)C)cc1)OCO3 | < 6.4 nM | 506 nM | 142 nM | 160 nM | 52.8 nM
CC[C@@]1(O)C(=O)OCc2c1cc1n(c2=O)Cc2c-1nc1cc3c(cc1c2-c1ccc(SC)cc1)OCO3 | 61.8 nM | 58.7 nM | 27.3 nM | 51.9 nM | 53.4 nM
CC[C@@]1(O)C(=O)OCc2c1cc1n(c2=O)Cc2cc3c(-c4ccc(SC)cc4)c4c(cc3nc2-1)OCO4 | 582 nM | 161 nM | 220 nM | 303 nM | 158 nM
CCSc1ccc(-c2c3c(cc4nc5c(cc24)Cn2c-5cc4c(c2=O)COC(=O)[C@]4(O)CC)OCO3)cc1 | 620 nM | > 1000 nM | 211 nM | 401 nM | > 1000 nM
CC[C@@]1(O)C(=O)OCc2c1cc1n(c2=O)Cc2c-1nc1cc3c(cc1c2-c1cccc(C)c1)OCO3 | 21.8 nM | 144 nM | 115 nM | 134 nM | 38.6 nM
CC[C@@]1(O)C(=O)OCc2c1cc1n(c2=O)Cc2c-1nc1cc3c(cc1c2-c1cc(C)cc(C)c1)OCO3 | 64 nM | 33.6 nM | 36 nM | 45.4 nM | 86.8 nM
CCSc1ccc(-c2c3c(nc4cc5c(cc24)OCO5)-c2cc4c(c(=O)n2C3)COC(=O)[C@]4(O)CC)cc1 | 91.3 nM | 95.8 nM | 29.1 nM | 300 nM | 72.5 nM
CCCCOc1ccc(-c2c3c(cc4nc5c(cc24)Cn2c-5cc4c(c2=O)COC(=O)[C@]4(O)CC)OCO3)cc1 | 782 nM | 593 nM | 616 nM | 569 nM | 344 nM
CC[C@@]1(O)C(=O)OCc2c1cc1n(c2=O)Cc2cc3c(-c4ccc(C(C)(C)C)cc4)c4c(cc3nc2-1)OCO4 | > 1000 nM | 674 nM | 910 nM | > 1000 nM | > 1000 nM
CC[C@@]1(O)C(=O)OCc2c1cc1n(c2=O)Cc2c-1nc1cc3c(cc1c2-c1cc(OC)c(OC)c(OC)c1)OCO3 | 39.6 nM | 200 nM | 140 nM | 738 nM | 101 nM
CC[C@@]1(O)C(=O)OCc2c1cc1n(c2=O)Cc2cc3c(-c4cccc(OC)c4)c4c(cc3nc2-1)OCO4 | > 1000 nM | > 1000 nM | 990 nM | > 1000 nM | > 1000 nM

Reference: ChEMBL document CHEMBL5376003, “Structure-Activity Relationship of FL118 Platform Position 7 Versus Position 9-Derived Compounds and Their Mechanism of Action and Antitumor Activity” (J Med Chem, 2023)
